Reference: patent US20250179166A1, “TREATMENT OF BRAIN METASTASIS” (Ramot at Tel-Aviv University Ltd., priority 2022, published 2025)

Legend:
[1] = system: 4T1 breast cancer brain metastases; experiment: Orthotopic breast cancer brain metastases (BCBM) model; assay type: in vivo, BALB/C mice; details: compared to the control group
Experimental: Breast Cancer Brain Metastases (BCBM). To generate primary breast rumors prior to BCBM, 4T1 cells (3×10^5 cells/100 μl) were inoculated orthotopically into the mammary fat pad of immunocompetent BALB/C mice. Seven days later, primary lesions were resected. One week post primary tumor resection, 4T1 cells (2×10^4 cells/2 μl) were intracranially inoculated stereotactically to the striatum of the same mice (previously bearing the primary tumors). […] Mice body weight change was monitored three times a week, and tumor growth was followed using 4.7T/1H magnetic resonance imaging (MRI, MR Solutions, UK). PBMCs activation.

MDA-MB-231 spheroids = experiment: Breast cancer 3D tumor spheroids; details: BC cells alone or with astrocytes, microglia and PBMCs
Experimental: Multicellular tumor spheroids (MCTS). MCTS were prepared using the hanging-drop method as previously shown (24). […] The sprouting of MCTS was analyzed using ImageJ 1.52v software, and the results were presented as total area covered or % of total area covered per spheroid (pixel density) per well.
The plates were incubated for 7 days at 37° C. in 5% CO2 and cell fluorescence was followed and quantified by Cytation™ C10.

131/4-5B1 melanoma cells = experiment: Wound healing migration assay; assay type: cell-based, human; details: vs cells in astrocytes SFM
Experimental: (§1) Wound Healing Assay. To study the role of MCP-1 in mediating melanoma cells migration, (WM115 and 131/4-5B1 cells) (5×10^4 cells/well) were plated onto 96-well ImageLock tissue culture plate and allowed to grow until confluence. Next, a wound was created in each well using a 96-pin wound-making tool (WoundMaker, Essen BioScience, Sartorius, USA), and dislodged cells were washed with PBS. Melanoma cells were treated for 48 h with astrocytes CM, human astrocytes CM treated with siRNA:PEI polyplexes (500 nM siRNA targeting MCP-1 or scramble siRNA), astrocytes CM supplemented with 10 µg/mL anti-MCP-1 neutralizing antibody, astrocytes SFM supplemented with 1 μg/mL rh/mMCP-1. To monitor wound closure, the plate was placed in the IncuCyte™ ZOOM Live Cell Imaging system (Essen Bioscience, Sartorius, USA) and phase contrast images were taken every 2 h intervals over a course of 48 h using 10× objective. Results were calculated by the IncuCyte™ Software and presented as relative wound density (relative to the background density of the wound at time 0).

WM115 melanoma cells = experiment: Wound healing migration assay; assay type: cell-based, human; details: vs cells in astrocytes SFM
Experimental: as §1

MDA-MB-231 cells = experiment: Breast cancer Transwell migration; details: vs control
[2] = system: melanoma cells (D4M.3A, B16-F10, A375, 131/4-5B1 and WM115); experiment: Transwell migration of melanoma cells towards bindarit-treated astrocytes; details: addition of rh-MCP-1; p=0.006 (astrocytes), p=0.115 (CM)
Experimental: Transwell® Migration Assay. […] In order to assess melanoma migration in co-culture with astrocytes, human astrocytes (1×10^5 cells/well) or murine astrocytes (2×10^5 cells/well) were seeded in the lower chambers of the Transwell® inserts. […] All migrated cells were then fixed and stained (Hema 3 Stain System; Fisher Diagnostics, fixed and stained (Hema 3 Stain System; Fisher Diagnostics, USA). The stained migrated cells were imaged using EVOS FL Auto microscope (Life Technologies, USA) using 10× objective, brightfield illumination.

Compound	systemic disease relapse (primary tumor recurrence or extracranial metastases) [1]	spheroid size (MDA-MB-231 spheroids)	increase of melanoma cell migration (wound healing) (131/4-5B1 melanoma cells) [%]	increase of melanoma cell migration (wound healing) (WM115 melanoma cells) [%]	MDA-MB-231 migration towards MCP-1 recombinant protein (MDA-MB-231 cells)	rescue of melanoma cell migration in presence of bindarit-treated astrocytes [2]
COc1ccc(C2CC(c3c(O)cc(C)oc3=O)=NCCS2)c(OC)c1 (stereo not drawn) [SELPi, 3-[7-(2,4-Dimethoxyphenyl)-2,3,6,7-tetrahydro-1,4-thiazepin-5-yl]-4-hydroxy-6-methyl-2H-pyran-2-one]	did not show any improvement in relapse	significant decrease	–	–	–	–
rh-MCP-1: Recombinant human/murine MCP-1	–	–	27	5	migrated more	rescued the inhibition of melanoma cell migration
